Measured values reported in US9248163B2, “Insulin-like growth factor binding protein 7 for treatment of cancer” (University of Massachusetts, priority 2007, dated 2016).

Key:
[1] = system: primary melanocytes; assay: Proliferation assay of primary melanocytes (trypan blue exclusion); type: cell-based, human; conditions: 14 days after treatment
Procedure: (§1) For the proliferation assay shown in FIG. 1B, 1×10^4 cells stably expressing an shRNA were cultured in 12-well plate format, infected with BRAFV600E-expressing retrovirus and after 14 days stained with crystal violet. For all other quantitative proliferation assays, cell viability was measured by trypan blue exclusion test at the time point indicated in the relevant figure legend. Values were expressed as percent cell growth, as described in the relevant figure legend. For the proliferation assays shown in FIG. 2A, CM was replenished every 3 days, and proliferation was measured after a total of 14 days of CM treatment. Unless otherwise stated, rIGFBP7 was added to the culture medium at a concentration of 10 μg/ml.
To confirm that IGFBP7 could block cellular proliferation, purified recombinant IGFBP7 (rIGFBP7) was purified from baculovirus-infected insect cells. […] Collectively, the results of FIGS. 2A-2D indicate that following expression of BRAFV600E, melanocytes synthesize and secrete increased amounts of IGFBP7, which then acts through an autocrine/paracrine pathway to induce senescence.

[2] = system: melanocytes; assay: Senescence-associated β-galactosidase assay; type: cell-based, human; conditions: rIGFBP7 10 μg/ml for 14 days; growth-arrested cells
Procedure: Melanocytes infected with a retrovirus expressing either vector or BRAFV600E, or melanocytes treated with BRAFV600E/melanocyte CM or rIGFBP7 (10 μg/ml) for 14 days were washed twice with PBS (5 minutes at room temperature), fixed with 3% formaldehyde (5 minutes at room temperature), and washed three more times with PBS. Cells were then incubated at 37° C. (0% CO2) overnight in SA-β-Gal stain solution (1 mg/mL X-Gal (5-bromo-4-chloro-3-indoyl b-D-galactoside), 40 mM citric acid/sodium phosphate (pH 6.0), 5 mM potassium ferrocyanide, 5 mM potassium ferricyanide, 150 mM NaCl and 2 mM MgCl2). Cells were washed with PBS and visualized on a Zeiss Axiovert™ 40 CFL microscope. Images were captured using QCapture™ Pro version 5 software (QImaging Corporation).

[3] = system: human melanoma cell lines; assay: Proliferation assay of human melanoma cell lines; type: cell-based; conditions: 24 hours, 10 μg/ml
Procedure: as §1
Next, the ability of IGFBP7 to block cellular proliferation in a panel of human melanoma cell lines was analyzed. The cells contained either an activating BRAF mutation (BRAFV600E; SK-MEL-28, MALME-3M, WM793B, WM39 and WM278), an activating RAS mutation (RASQ61R; SK-MEL-2, SK-MEL-103, and WM1366), or were wild type for both BRAF and RAS (CHL, SK-MEL-31, WM1321 and WM3211). For each cell line, the presence of IGFBP7 in the CM was determined by immunoblot analysis (FIG. 3A), and sensitivity to IGFBP7-induced growth inhibition was measured in a proliferation assay (FIG. 3B). The results reveal a striking inverse correlation between IGFBP7 expression and sensitivity to IGFBP7-mediated growth inhibition that correlates with the status of BRAF or RAS.

[4] = system: human melanoma cell lines; assay: Apoptosis assay (Annexin V-PE) in melanoma cells; type: cell-based
Procedure: PFF fibroblasts or melanocytes or shRNA knockdown derivatives (5×10^5 cells) were infected with BRAFV600E-expressing retrovirus, and 4 days later the total cell population was stained for Annexin V-PE (BD Biosciences). To monitor apoptosis in melanoma cells following rIGFBP7 treatment, 5×10^5 cells were treated with rIGFBP7 (10 μg/ml) for 24 hours and stained for Annexin V-PE.
Finally, it was determined whether apoptosis was dependent upon the continual presence of rIGFBP7 or was irreversible following transient exposure to rIGFBP7. SK-MEL-28 cells were incubated with rIGFBP7 for various lengths of time, following which the cells were washed and cultured in medium lacking rIGFBP7, and apoptosis was quantitated after 24 hours. The results, shown in FIG. 3H, indicate that following 6 hours of incubation with rIGFBP7, the cells were irreversibly committed to apoptosis, which occurred even following removal of rIGFBP7.

[5] = system: primary melanocytes and SK-MEL-28 melanoma cells; assay: Quantitative real-time RT-PCR of the identified genes after rIGFBP7 addition; type: cell-based, human
Procedure: Total RNA was isolated using TRIZOL™ (Invitrogen) 7 days after retroviral transduction and puromycin selection. Reverse transcription was performed using SuperScript™ II Reverse Transcriptase (Invitrogen) as per the manufacturer's instructions, followed by quantitative real-time PCR using Platinum SYBR™ Green qPCR SuperMix-UDG with Rox (Invitrogen).
To understand the basis of this differential response, expression of the 17 identified genes was analyzed in primary melanocytes and BRAFV600E-positive SK-MEL-28 melanoma cells. […] PEA15, a known regulator of BRAF-MEK-ERK signaling (Formstecher et al., 2001, Dev. Cell, 1:239-250), is required for senescence (see FIG. 1F). Thus, the lack of PEA15 induction in IGFBP7-treated SK-MEL-28 cells can explain their failure to undergo senescence.

[6] = system: BRAF-MEK-ERK signaling in SK-MEL-28 cells; assay: Immunoblot analysis of BRAF-MEK-ERK signaling (phospho-ERK, activated MEK1/2, RKIP); type: cell-based, human
Procedure: To prepare cell extracts, cells were lysed in Laemmli buffer; for phospho-proteins, cells were lysed in the presence of a phosphatase inhibitor cocktail (Sigma). To prepare conditioned media, cells were grown in Opti-MEM™ (Invitrogen) for 24 hours, and media was harvested and concentrated using Centricon™ plus 20 tubes (Millipore). Conditioned media was normalized to cell number prior to loading the gel. For the experiments shown in FIGS. 3D and 4C, rIGFBP7 was added to the culture medium at a concentration of 10 μg/ml. For the MEK/RAF inhibitor experiment of FIG. 4D, SK-MEL-28 cells were treated with 2 μg/ml or 10 μg/ml rIGFBP7, 20 μM or 40 μM of the MEK inhibitor PD98054 (Calbiochem), or 5 nM or 10 nM the RAF inhibitor GW5074 (Sigma) for 24 hours prior to harvesting cells. Proteins were resolved by SDS-PAGE and transferred to nitrocellulose. Blots were probed with the following antibodies: α-p16 (Abcam), α-acetylated H3K9 (Upstate), α-IGFBP7 (Santa Cruz), α-SMARCB1 (Abnova), α-BNIP3L (Proscience), α-BRAFV600E (Santa Cruz), α-cleaved caspase-3 p11 (Santa Cruz), α-β-actin (Sigma), α-phospho-ERK (Cell Signaling) or α-ERK (Cell Signaling).
To test this idea, rIGFBP7 was added to BRAFV600E-positive SK-MEL-28 melanoma cells, and the levels of total and activated ERK (phospho-ERK) were analyzed.

rIGFBP7: purified recombinant human IGFBP7, C-terminal Flag-tagged, from baculovirus-infected Sf9 insect cells
proliferation of primary melanocytes [1]: blocked proliferation of primary melanocytes in a dose-dependent manner | senescence-associated β-galactosidase staining [2]: stained positively | sensitivity to IGFBP7-mediated growth inhibition ([3]; cells with wild type BRAF and RAS): relatively insensitive | sensitivity to IGFBP7-mediated growth inhibition ([3]; melanoma cell lines with activating BRAF mutation (BRAFV600E)): highly sensitive | sensitivity to IGFBP7-mediated growth inhibition ([3]; melanoma cell lines with activating RAS mutation (RASQ61R)): partially sensitive | incubation time after which cells were irreversibly committed to apoptosis ([4]; SK-MEL-28 cells, washed, apoptosis quantitated after 24 hours): 6 h | surviving senescent cells ([4]; melanoma cell lines with activating BRAF mutation): undetectable | apoptosis ([4]; melanoma cell lines with activating BRAF mutation, 10 μg/ml, 24 hours): strongly induced apoptosis | upregulation of IGFBP7 and PEA15 ([5]; SK-MEL-28 cells): neither IGFBP7 nor PEA15 were upregulated | induction of the seven BRAFV600E-upregulated genes ([5]; melanocytes, IGFBP7 being the exception): six of the seven genes were induced | BNIP3L upregulation ([5]; primary melanocytes): only modestly upregulated | growth factor-induced ERK activation [6]: blocked | RAF inhibitory protein (RKIP) expression ([6]; SK-MEL-28 cells): upregulation | levels of activated MEK1/2 ([6]; SK-MEL-28 cells): decreased levels | phospho-ERK level ([6]; SK-MEL-28 cells, 24 hours, 0.2-10 μg/ml): dose-dependent loss of phospho-ERK
